# Reference: the kinase profiling compilation of Christmann-Franck et al. (2016)
# What was measured:
# Assay in all cases: radiometric filter-binding kinase assay, Kinase HotSpot
# Settings in all cases: compound 0.5 µM; ATP 10 µM
# MET (human) = MET (human) (UniProt P08581)
# BTK (human) = BTK (human) (UniProt Q06187)
# NTRK1 (human) = NTRK1 (human) (UniProt P04629)
# TXK (human) = TXK (human) (UniProt P42681)
# AKT3 (human) = AKT3 (human) (UniProt Q9Y243)
# ITK (human) = ITK (human) (UniProt Q08881)
# DAPK3 (human) = DAPK3 (human) (UniProt O43293)
# HIPK3 (human) = HIPK3 (human) (UniProt Q9H422)
# YES1 (human) = YES1 (human) (UniProt P07947)
# EPHA5 (human) = EPHA5 (human) (UniProt P54756)
# RPS6KA4 KD2 (human) = RPS6KA4 KD2 (human) (UniProt O75676)
# PAK3 (human) = PAK3 (human) (UniProt O75914)
# PRKD3 (human) = PRKD3 (human) (UniProt O94806)
# TNK2 (human) = TNK2 (human) (UniProt Q07912)
# FGFR3 (human) = FGFR3 (human) (UniProt P22607)
# CDC42BPA (human) = CDC42BPA (human) (UniProt Q5VT25)
# DYRK1B (human) = DYRK1B (human) (UniProt Q9Y463)
# MAP4K4 (human) = MAP4K4 (human) (UniProt O95819)
# PIM1 (human) = PIM1 (human) (UniProt P11309)
# STK25 (human) = STK25 (human) (UniProt O00506)
# MAP3K14 (human) = MAP3K14 (human) (UniProt Q99558)
# RPS6KA3 KD1 KD2 (human) = RPS6KA3 KD1 KD2 (human) (UniProt P51812)
# CSNK1G1 (human) = CSNK1G1 (human) (UniProt Q9HCP0)
# MAPK11 (human) = MAPK11 (human) (UniProt Q15759)
# MAPK10 (human) = MAPK10 (human) (UniProt P53779)
# MAP3K5 (human) = MAP3K5 (human) (UniProt Q99683)
# DSTYK (human) = DSTYK (human) (UniProt Q6XUX3)
# CAMKK1 (human) = CAMKK1 (human) (UniProt Q8N5S9)
# PRKCD (human) = PRKCD (human) (UniProt Q05655)
# ADRBK2 (human) = ADRBK2 (human) (UniProt P35626)
# ACVR1B (human) = ACVR1B (human) (UniProt P36896)
# CDK1 CCNB1 (human) = CDK1 CCNB1 (human) (UniProt P06493+P14635)
# PTK2B (human) = PTK2B (human) (UniProt Q14289)
# CAMK2G (human) = CAMK2G (human) (UniProt Q13555)
# PRKCB1 (human) = PRKCB1 (human) (UniProt P05771)
# CHEK2 (human) = CHEK2 (human) (UniProt O96017)
# MAP3K2 (human) = MAP3K2 (human) (UniProt Q9Y2U5)
# MAP3K7 TAB1 (human) = MAP3K7 TAB1 (human) (UniProt O43318+Q15750)
# EPHA2 (human) = EPHA2 (human) (UniProt P29317)
# VRK1 (human) = VRK1 (human) (UniProt Q99986)
# RPS6KB1 (human) = RPS6KB1 (human) (UniProt P23443)
# PIM2 (human) = PIM2 (human) (UniProt Q9P1W9)
# Chain of BTK (human) (Q06187 whole entry, looked up): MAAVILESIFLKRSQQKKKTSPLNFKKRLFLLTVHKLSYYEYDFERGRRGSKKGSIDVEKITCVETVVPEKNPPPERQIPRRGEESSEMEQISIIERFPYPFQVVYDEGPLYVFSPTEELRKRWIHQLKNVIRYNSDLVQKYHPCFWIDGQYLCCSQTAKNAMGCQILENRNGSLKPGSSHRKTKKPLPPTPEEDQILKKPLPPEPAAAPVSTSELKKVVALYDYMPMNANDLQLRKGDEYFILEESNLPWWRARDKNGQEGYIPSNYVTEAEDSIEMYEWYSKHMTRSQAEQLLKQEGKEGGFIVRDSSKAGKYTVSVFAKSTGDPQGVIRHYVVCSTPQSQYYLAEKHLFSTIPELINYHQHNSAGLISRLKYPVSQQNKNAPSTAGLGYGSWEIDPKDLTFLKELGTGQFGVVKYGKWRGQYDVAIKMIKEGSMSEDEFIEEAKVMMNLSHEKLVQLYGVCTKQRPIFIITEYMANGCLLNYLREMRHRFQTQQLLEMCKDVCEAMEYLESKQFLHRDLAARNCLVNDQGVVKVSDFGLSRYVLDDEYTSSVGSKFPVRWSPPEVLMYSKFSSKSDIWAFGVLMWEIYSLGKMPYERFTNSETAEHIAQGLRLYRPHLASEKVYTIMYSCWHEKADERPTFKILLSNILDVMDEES
# Chain of TNK2 (human) (Q07912 whole entry, looked up): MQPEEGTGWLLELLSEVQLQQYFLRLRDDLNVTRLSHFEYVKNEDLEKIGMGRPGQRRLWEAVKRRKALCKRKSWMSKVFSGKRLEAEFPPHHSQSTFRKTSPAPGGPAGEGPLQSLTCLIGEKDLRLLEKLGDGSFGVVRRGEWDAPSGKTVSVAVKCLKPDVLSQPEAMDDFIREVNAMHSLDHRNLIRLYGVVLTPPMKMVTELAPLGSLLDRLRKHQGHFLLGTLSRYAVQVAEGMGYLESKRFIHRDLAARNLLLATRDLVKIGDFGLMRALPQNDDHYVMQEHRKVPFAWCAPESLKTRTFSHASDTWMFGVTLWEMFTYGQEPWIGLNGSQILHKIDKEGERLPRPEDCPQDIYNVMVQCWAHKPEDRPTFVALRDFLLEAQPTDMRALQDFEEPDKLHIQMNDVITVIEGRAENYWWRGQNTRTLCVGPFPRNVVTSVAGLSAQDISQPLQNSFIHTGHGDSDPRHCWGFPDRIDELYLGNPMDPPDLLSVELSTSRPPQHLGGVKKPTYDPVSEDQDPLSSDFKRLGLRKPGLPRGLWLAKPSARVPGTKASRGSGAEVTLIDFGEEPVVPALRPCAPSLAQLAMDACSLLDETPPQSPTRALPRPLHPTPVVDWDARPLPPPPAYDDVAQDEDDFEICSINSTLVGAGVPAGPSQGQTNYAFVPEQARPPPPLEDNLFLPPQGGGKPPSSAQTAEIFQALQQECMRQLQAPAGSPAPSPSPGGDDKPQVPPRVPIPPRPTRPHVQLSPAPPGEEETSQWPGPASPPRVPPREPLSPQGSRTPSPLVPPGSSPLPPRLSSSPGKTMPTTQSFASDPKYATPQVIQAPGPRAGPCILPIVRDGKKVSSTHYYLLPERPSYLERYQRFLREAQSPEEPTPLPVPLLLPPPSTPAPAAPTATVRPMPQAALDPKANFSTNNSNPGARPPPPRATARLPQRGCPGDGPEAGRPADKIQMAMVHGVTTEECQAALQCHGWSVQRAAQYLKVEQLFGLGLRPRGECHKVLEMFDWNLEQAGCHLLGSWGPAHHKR
# Chain of MAP4K4 (human) (O95819 whole entry, looked up): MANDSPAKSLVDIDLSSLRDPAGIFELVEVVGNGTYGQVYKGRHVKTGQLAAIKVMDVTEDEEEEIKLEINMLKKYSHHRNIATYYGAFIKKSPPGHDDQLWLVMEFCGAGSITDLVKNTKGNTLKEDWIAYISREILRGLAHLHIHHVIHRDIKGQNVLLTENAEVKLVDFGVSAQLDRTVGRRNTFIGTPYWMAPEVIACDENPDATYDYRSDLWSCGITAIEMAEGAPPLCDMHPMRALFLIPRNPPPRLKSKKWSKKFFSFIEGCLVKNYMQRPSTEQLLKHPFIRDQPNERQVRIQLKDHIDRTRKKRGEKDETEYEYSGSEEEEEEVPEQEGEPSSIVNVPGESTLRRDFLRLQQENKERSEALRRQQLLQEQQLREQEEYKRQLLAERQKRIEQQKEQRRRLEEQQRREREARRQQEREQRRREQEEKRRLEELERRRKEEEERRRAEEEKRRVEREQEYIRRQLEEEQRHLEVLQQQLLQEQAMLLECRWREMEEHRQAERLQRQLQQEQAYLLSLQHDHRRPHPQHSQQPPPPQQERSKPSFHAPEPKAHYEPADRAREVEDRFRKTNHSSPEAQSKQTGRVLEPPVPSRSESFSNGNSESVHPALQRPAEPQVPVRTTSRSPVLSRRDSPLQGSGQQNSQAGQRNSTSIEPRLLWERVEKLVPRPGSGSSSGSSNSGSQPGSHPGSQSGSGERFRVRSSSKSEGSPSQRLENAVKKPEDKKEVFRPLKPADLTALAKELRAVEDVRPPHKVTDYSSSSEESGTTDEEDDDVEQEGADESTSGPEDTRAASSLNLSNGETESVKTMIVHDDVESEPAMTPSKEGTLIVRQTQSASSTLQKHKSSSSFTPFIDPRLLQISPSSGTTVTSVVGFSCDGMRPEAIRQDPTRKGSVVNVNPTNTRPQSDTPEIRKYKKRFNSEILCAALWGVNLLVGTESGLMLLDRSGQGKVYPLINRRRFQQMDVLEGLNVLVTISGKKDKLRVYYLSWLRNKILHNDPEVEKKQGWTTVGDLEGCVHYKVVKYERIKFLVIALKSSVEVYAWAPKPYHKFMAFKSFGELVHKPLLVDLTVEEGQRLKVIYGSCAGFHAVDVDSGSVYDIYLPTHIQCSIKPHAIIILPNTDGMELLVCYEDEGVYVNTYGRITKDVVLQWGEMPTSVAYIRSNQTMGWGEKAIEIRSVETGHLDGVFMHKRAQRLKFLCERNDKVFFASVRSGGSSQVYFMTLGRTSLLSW
# Chain of PRKD3 (human) (O94806 whole entry, looked up): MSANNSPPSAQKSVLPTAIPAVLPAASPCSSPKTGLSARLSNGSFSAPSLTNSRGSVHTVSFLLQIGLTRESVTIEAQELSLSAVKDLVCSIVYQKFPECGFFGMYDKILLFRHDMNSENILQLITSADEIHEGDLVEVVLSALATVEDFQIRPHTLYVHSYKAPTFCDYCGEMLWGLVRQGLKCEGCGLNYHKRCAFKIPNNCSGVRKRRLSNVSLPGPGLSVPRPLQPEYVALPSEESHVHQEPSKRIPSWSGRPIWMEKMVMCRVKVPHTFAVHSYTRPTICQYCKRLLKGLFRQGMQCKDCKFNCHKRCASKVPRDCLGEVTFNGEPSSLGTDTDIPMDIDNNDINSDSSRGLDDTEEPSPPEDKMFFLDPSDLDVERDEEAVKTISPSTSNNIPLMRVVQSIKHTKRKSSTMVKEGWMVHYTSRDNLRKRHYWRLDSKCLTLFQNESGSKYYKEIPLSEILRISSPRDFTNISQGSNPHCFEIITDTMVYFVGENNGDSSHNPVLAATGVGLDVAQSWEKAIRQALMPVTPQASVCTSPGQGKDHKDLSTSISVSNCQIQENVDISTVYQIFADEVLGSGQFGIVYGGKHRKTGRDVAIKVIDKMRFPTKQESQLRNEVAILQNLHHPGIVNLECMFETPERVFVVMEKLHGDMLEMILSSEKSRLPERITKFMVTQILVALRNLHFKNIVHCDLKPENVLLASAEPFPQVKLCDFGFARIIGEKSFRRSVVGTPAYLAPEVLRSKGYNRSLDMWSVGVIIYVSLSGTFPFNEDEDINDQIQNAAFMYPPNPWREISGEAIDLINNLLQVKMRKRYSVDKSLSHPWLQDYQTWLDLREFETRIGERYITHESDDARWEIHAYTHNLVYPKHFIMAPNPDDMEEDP
# Chain of CHEK2 (human) (O96017 whole entry, looked up): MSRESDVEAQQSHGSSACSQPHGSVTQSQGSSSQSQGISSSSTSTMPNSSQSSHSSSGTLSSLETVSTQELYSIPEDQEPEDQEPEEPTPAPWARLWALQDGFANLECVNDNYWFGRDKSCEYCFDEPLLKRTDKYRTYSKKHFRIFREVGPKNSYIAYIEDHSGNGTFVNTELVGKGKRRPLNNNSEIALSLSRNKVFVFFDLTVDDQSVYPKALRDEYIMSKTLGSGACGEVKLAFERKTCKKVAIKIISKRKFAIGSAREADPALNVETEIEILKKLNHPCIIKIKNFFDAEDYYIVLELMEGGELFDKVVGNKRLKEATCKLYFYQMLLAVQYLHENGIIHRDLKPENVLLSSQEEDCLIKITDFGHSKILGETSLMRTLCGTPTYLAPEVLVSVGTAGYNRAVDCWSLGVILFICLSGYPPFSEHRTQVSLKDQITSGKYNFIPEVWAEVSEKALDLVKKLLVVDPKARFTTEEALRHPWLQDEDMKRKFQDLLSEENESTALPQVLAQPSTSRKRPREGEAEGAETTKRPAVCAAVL
# Chain of PAK3 (human) (O75914 whole entry, looked up): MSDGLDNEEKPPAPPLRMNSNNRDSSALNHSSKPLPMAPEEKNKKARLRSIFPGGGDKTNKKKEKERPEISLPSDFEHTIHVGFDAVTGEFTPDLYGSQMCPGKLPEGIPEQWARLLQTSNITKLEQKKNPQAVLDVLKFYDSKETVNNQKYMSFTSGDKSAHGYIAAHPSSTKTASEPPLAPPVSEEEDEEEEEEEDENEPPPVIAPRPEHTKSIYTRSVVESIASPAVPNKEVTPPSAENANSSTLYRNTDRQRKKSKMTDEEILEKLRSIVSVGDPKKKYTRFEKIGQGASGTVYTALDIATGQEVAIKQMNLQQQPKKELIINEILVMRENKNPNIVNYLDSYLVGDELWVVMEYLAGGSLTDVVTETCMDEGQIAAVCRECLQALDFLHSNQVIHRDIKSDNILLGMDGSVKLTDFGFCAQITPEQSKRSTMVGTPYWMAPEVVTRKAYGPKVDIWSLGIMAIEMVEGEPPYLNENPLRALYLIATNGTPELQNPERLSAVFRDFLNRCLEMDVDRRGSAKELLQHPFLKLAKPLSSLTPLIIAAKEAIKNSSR
smiles,measurement,setting,value
O=c1cc(-c2cccc3c2Sc2ccccc2S3)oc(N2CCOCC2)c1,residual activity,MET (human),107%
same,residual activity,BTK (human),104%
same,residual activity,NTRK1 (human),99.4%
same,residual activity,TXK (human),106%
same,residual activity,AKT3 (human),109%
same,residual activity,ITK (human),96.6%
same,residual activity,DAPK3 (human),106%
same,residual activity,HIPK3 (human),105%
same,residual activity,YES1 (human),89.4%
same,residual activity,EPHA5 (human),114%
same,residual activity,RPS6KA4 KD2 (human),88.1%
same,residual activity,PAK3 (human),95%
same,residual activity,PRKD3 (human),83.4%
same,residual activity,TNK2 (human),95.7%
same,residual activity,FGFR3 (human),94.7%
same,residual activity,CDC42BPA (human),106%
same,residual activity,DYRK1B (human),101%
same,residual activity,MAP4K4 (human),93.2%
same,residual activity,PIM1 (human),77.6%
same,residual activity,STK25 (human),99.6%
same,residual activity,MAP3K14 (human),94.9%
same,residual activity,RPS6KA3 KD1 KD2 (human),102%
same,residual activity,CSNK1G1 (human),99.3%
same,residual activity,MAPK11 (human),102%
same,residual activity,MAPK10 (human),93.6%
same,residual activity,MAP3K5 (human),104%
same,residual activity,DSTYK (human),93.4%
same,residual activity,CAMKK1 (human),112%
same,residual activity,PRKCD (human),91.9%
same,residual activity,ADRBK2 (human),100%
same,residual activity,ACVR1B (human),114%
same,residual activity,CDK1 CCNB1 (human),88.5%
same,residual activity,PTK2B (human),106%
same,residual activity,CAMK2G (human),106%
same,residual activity,PRKCB1 (human),103%
same,residual activity,CHEK2 (human),102%
same,residual activity,MAP3K2 (human),92.7%
same,residual activity,MAP3K7 TAB1 (human),84.5%
same,residual activity,EPHA2 (human),96.2%
same,residual activity,VRK1 (human),90.7%
same,residual activity,RPS6KB1 (human),91.5%
same,residual activity,PIM2 (human),118%
